Converted amounts (≈) assume the structure as drawn. “Also recorded” adds a separate entry of the source. Where two headings read alike, the source gives them in different places.
What was measured:
[1] = target: T1, urease from Canavalia ensiformis (Canavalia ensiformis, UniProt P07374); assay: Urease inhibition assay (indophenol method, cell-free); assay type: biochemical
T1 construct: purchased Sigma
Description: A reaction mixture consisting of 25 µL of enzyme solution (urease from Canavalia ensiformis, Sigma, 1U final concentration) and 5 µL of test compounds dissolved in water (10–300.0 µM final concentration) was preincubated at 37 °C for 60 min in 96-well plates. Then, 55 µL of phosphate-buffered solution with […] of urea was added to each well and incubated at 37 °C for 10 min. The urease inhibitory activity was estimated by determining ammonia production using the indophenol method. Briefly, 45 µL of phenol reagent (1% w/v phenol and 0.005% w/v sodium nitroprusside) and 70 µL of alkali reagent (0.5% w/v NaOH and 0.1% active chloride NaClO) were added to each well. The absorbance was measured after 50 min at 630 nm using a MultiskanFS microplate reader (Thermo Scientific Inc., Beverly, MA, USA). All reactions were performed in triplicate in a final volume of 200 µL. The pH was maintained at 7.3–7.5 in all assays. DMSO 5% was used as a positive control.

Candida albicans KMM 455 = assay: Antimicrobial activity, inhibition of microbial growth (OD620); assay type: cell-based; settings: Candida albicans, KMM455; compounds tested at 100 µM; read-out: Inhibition of Microbial Growth, C. albicans
Description: (§1) The yeast-like fungi of Candida albicans KMM 455 and bacterial strains Staphylococcus aureus ATCC 21027 and Escherichia coli VKPM (B-7935) (Collection of Marine Microorganisms PIBOC FEB RAS) were cultured on solid-medium Mueller Hinton broth with agar (16.0 g/L) in a Petri dish at 37 °C for 24 h.
(§2) The assays were performed in 96-well microplates in appropriate Mueller Hinton broth. Each well contained 90 µL of bacterial or of a yeast-like fungi suspension (10^9 CFU/mL). Then, 10 µL of a compound diluted at concentrations ranging from 1.5 to 100.0 µM using a 2-fold dilution was added (DMSO concentration < 1%). Culture plates were incubated overnight at 37 °C, and the OD620 was measured using a Multiskan FS spectrophotometer (Thermo Scientific Inc., Beverly, MA, USA). The antibiotic gentamicin and antifungal agent nitrofungin were used as positive controls at 1 mg/mL; 1% DMSO in PBS served as a negative control.

[2] = system: Staphylococcus aureus ATCC 21027; assay: as above; assay type: cell-based; settings: Staphylococcus aureus, ATCC21027, compounds tested at 100 µM; read-out: Inhibition of Microbial Growth, S. aureus
Description: as §1, §2

[3] = system: Escherichia coli VKPM (B-7935); assay: as above; assay type: cell-based; settings: Escherichia coli, compounds tested at 100 µM; read-out: Inhibition of Microbial Growth, E. coli
Description: as §1, §2

Bacillus subtilis = system: Bacillus subtilis; design: method as in doi:10.1007/s11274-009-0062-y; settings: cited from earlier work
Candida albicans = system: Candida albicans; design: method as in doi:10.1007/s11274-009-0062-y; settings: cited from earlier work
Pseudomonas fluorescens = system: Pseudomonas fluorescens; design: method as in doi:10.1007/s11274-009-0062-y; settings: cited from earlier work
[4] = Cell viability assay (MTT), cytotoxic activity; assay type: cell-based, human; settings: 24 h, MTT; for viability at 24 h, 10 µM / viability at 24 h, 100 µM: percent of control
Description: The HepG2 and H9c2 cells were cultured in DMEM medium (Biolot, St. Petersburg, Russia) containing 10% fetal bovine serum (Biolot, St. Petersburg, Russia) and 1% penicillin/streptomycin (Biolot, St. Petersburg, Russia) at 37 °C in a humidified atmosphere with 5% (v/v) CO2.
The HepG2 and H9c2 cells were seeded at concentrations of 5× 10^3 and 3×10^3 cell/well, respectively, and the experiments were started after 24 h. The compounds at concentrations up to 100 µM were added into the wells for 24 h, and the viability of the cells was measured by an MTT (3-(4,5-dimethylthiazol-2-yl)-2,5-diphenyltetrazolium bromide) assay, which was performed according to the manufacturer’s instructions (Sigma-Aldrich, Munich, Germany). All compounds were dissolved with DMSO so that the final concentration of DMSO in the cell culture was not more than 1%. Moreover, DMSO was used as a control. The absorbance of the resulting solution was measured at 570 nm with a microplate reader MultiscanFC (ThermoLabsystems Inc., Beverly, MA, USA). The results are presented as a percent of the control data and calculated IC50.

Escherichia coli = system: Escherichia coli; design: method as in doi:10.1007/s11274-009-0062-y; settings: cited from earlier work
[5] = human, HepG2 hepatocarcinoma cells

T1 sequence (P07374 whole entry, looked up): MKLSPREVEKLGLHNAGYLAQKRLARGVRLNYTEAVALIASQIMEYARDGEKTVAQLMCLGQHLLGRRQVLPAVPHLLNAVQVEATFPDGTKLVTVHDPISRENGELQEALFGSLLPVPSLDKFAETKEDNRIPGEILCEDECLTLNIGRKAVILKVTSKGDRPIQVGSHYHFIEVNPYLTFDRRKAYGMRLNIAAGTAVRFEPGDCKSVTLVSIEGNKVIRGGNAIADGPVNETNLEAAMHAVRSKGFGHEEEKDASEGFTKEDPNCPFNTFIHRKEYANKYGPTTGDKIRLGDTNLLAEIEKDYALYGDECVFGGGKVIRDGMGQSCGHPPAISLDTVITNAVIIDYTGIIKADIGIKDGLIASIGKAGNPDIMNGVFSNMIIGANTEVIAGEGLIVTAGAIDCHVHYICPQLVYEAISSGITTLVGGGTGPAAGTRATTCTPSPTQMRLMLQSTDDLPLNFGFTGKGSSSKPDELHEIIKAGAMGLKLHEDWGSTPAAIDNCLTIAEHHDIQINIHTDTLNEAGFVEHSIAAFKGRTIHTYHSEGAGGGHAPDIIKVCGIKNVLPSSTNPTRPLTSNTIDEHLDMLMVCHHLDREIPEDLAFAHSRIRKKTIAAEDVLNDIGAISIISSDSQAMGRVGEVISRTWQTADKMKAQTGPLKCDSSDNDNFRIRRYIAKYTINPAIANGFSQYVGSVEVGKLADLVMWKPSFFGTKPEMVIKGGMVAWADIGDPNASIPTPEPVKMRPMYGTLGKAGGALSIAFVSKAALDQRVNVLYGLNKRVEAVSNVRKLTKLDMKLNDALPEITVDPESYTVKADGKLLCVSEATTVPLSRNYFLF

## Cc1cc(=O)c2c(C)cc(O)cc2o1 [Compound 4, altechromone A]
[1]
  IC50: > 100 µM
[1]; at concentrations of up to 100 µM
  effect on urease activity: no effect; also recorded: very poor
Candida albicans KMM 455
  inhibition at 100 µM: 11.1 ± 1.3%
[2]
  inhibition at 100 µM: 30.1 ± 1.2%
[3]
  inhibition at 100 µM: 13.6 ± 0.3%
Bacillus subtilis
  MIC against Bacillus subtilis: 3.9 µg/mL (≈ 20.5 µM)
Candida albicans
  MIC against Candida albicans: 3.9 µg/mL (≈ 20.5 µM)
Pseudomonas fluorescens
  MIC against Pseudomonas fluorescens: 1.8 µg/mL (≈ 9.46 µM)
[4]; human, HepG2 cells (human hepatocarcinoma), read-out: HepG2 IC50 (cytotoxic effect)
  IC50 at 24 h: > 100 µM
[4]; [5]
  viability at 24 h, 10 µM: 99.2 ± 6.5%
  viability at 24 h, 100 µM: 92.6 ± 4.1%
[4]; rat, H9c2 cardiomyocyte cells
  viability at 24 h, 10 µM: 110 ± 2.9%
  viability at 24 h, 100 µM: 96.5 ± 3.6%
[4]; rat, H9c2 cells (normal rat cardiomyocytes), read-out: H9c2 IC50 (cytotoxic effect)
  IC50 at 24 h: > 100 µM
Escherichia coli
  MIC against Escherichia coli: 3.9 µg/mL (≈ 20.5 µM)
